Results on 22 compounds are retold here after US20240294531A1, “COVALENT HETEROCYCLES AND USES THEREOF” (Kumquat Biosciences Inc., priority 2022, published 2024).

One test addresses BTK C481S protein (Homo sapiens (Human), UniProt Q06187, C481S). As to the kind of experiment: BTK C481S HTRF displacement assay. In kind it is binding. As to conditions: 1-hour incubation. Summed up:
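N-terminal GST-tagged BTK C481S (2-659) incubated 1 hour at room temperature with compound (6 doses, four-fold from 5 μM), 50 nM kinase tracer 239 and anti-GST-Tb antibody. TR-FRET 665/620 ratio, background-subtracted; IC50 from constrained four-parameter fit. KI=IC50/(1+[Tracer]/Kd), tracer Kd 54 nM.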
(In general: TR-FRET usually uses a lanthanide donor and a delayed reading to cut background.)

The next test addresses BTK wildtype protein (Homo sapiens (Human), UniProt Q06187). As to the kind of experiment: BTK wildtype HTRF displacement assay. In kind it is binding. As to conditions: 1-hour incubation; read-out: BTK (wt) IC50. Summed up:
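Full-length N-terminal GST-tagged BTK incubated 1 h at room temperature with compound (6 doses, four-fold dilutions from 5 μM top) plus kinase tracer 239 and anti-GST-Tb antibody. Tracer displacement read as TR-FRET 665/620 ratio, background-subtracted using no-protein control. IC50 from four-parameter fit constrained 0–100% inhibition.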

As a reminder, the IC50 is the concentration that inhibits the measured activity by half.

Structures are written as SMILES.

BTK C481S protein, sequence (Q06187 2-659 C481S): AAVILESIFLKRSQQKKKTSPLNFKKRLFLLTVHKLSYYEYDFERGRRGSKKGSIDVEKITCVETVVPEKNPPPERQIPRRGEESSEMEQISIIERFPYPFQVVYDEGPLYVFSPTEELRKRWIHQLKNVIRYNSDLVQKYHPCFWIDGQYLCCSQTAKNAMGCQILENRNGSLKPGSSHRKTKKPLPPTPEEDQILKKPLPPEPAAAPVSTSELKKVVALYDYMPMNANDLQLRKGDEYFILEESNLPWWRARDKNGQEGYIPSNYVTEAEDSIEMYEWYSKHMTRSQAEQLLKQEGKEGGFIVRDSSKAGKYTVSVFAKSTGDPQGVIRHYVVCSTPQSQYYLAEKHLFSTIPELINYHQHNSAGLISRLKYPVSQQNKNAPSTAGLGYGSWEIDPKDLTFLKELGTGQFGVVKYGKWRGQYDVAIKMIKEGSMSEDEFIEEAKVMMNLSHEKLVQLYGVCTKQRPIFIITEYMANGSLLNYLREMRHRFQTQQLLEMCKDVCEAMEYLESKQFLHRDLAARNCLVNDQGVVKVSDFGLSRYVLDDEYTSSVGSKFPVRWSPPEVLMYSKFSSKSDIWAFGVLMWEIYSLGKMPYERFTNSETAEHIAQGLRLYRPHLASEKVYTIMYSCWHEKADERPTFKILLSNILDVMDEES
BTK wildtype protein, sequence (Q06187 2-659): as the sequence (Q06187 2-659 C481S) above, with S480C counted along it

For the compound `COc1ccc(F)cc1C(=O)NCc1ccc(-c2nn(C3(CCN(C)C(=O)n4cncn4)CC3)c3ncnc(N)c23)cc1` [Compound 225, N-(2-(1-(4-amino-3-(4-((5-fluoro-2-methoxybenzamido)methyl)phenyl)-1H-pyrazolo[3,4-d]pyrimidin-1-yl)cyclopropyl)ethyl)-N-methyl-1H-1,2,4-triazole-1-carboxamide], the IC50 was above 1000 nM at BTK C481S protein and at most 1000 nM at BTK wildtype protein.

Consider `COc1ccc(F)cc1C(=O)NCc1ccc(-c2nn(C(C)CN(C)C(=O)n3cncn3)c3ncnc(N)c23)cc1` (centres unmarked) [Compound 226, N-(2-(4-amino-3-(4-((5-fluoro-2-methoxybenzamido)methyl)phenyl)-1H-pyrazolo[3,4-d]pyrimidin-1-yl)propyl)-N-methyl-1H-1,2,4-triazole-1-carboxamide], for which the concentration for half-maximal inhibition (IC50) on BTK C481S protein and at BTK wildtype protein was at most 1000 nM in each case.

Take `NC(=O)c1c(-c2ccc(Oc3ccccc3)cc2)nn2c1NCC1CN(C(=O)n3cncn3)CC12` (centres unmarked) [Compound 228, 2-(4-phenoxyphenyl)-7-(1H-1,2,4-triazole-1-carbonyl)-5,5a,6,7,8,8a-hexahydro-4H-pyrazolo[1,5-a] pyrrolo[3,4-e]pyrimidine-3-carboxamide]: the half-maximal inhibitory concentration (IC50) at BTK C481S protein and at BTK wildtype protein was above 1000 nM each time.

As for `COc1ccc(F)cc1C(=O)NCc1ccc(-c2nn(CC3CCCCC3N(C)C(=O)n3cncn3)c(N)c2C(N)=O)cc1` (centres unmarked) [Compound 229, N-(2-((5-amino-4-carbamoyl-3-(4-((5-fluoro-2-methoxybenzamido)methyl)phenyl)-1H-pyrazol-1-yl)methyl)cyclohexyl)-N-methyl-1H-1,2,4-triazole-1-carboxamide], the half-inhibitory concentration (IC50) at BTK C481S protein and on BTK wildtype protein was at most 1000 nM throughout.

Consider `COc1ccc(F)cc1C(=O)NCc1ccc(-c2nn(C(C)CN(C(=O)n3cncn3)C3CC3)c3ncnc(N)c23)cc1` (centres unmarked) [Compound 230, N-(2-(4-amino-3-(4-((5-fluoro-2-methoxybenzamido)methyl)phenyl)-1H-pyrazolo[3,4-d]pyrimidin-1-yl)propyl)-N-cyclopropyl-1H-1,2,4-triazole-1-carboxamide], for which the results for the IC50 on BTK C481S protein and at BTK wildtype protein were at most 1000 nM and above 1000 nM, respectively.

For `COc1ccc(F)cc1C(=O)NCc1ccc(-c2nn(C(CN(C(=O)n3cncn3)C3CC3)C3CC3)c3ncnc(N)c23)cc1` (centres unmarked) [Compound 231, N-(2-(4-amino-3-(4-((5-fluoro-2-methoxybenzamido)methyl)phenyl)-1H-pyrazolo[3,4-d]pyrimidin-1-yl)-2-cyclopropyl-ethyl)-N-cyclopropyl-1H-1,2,4-triazole-1-carboxamide], the half-inhibitory concentration (IC50) on BTK C481S protein and on BTK wildtype protein was above 1000 nM throughout.

`COc1ccc(F)cc1C(=O)NCc1ccc(-c2nn([C@H]3CCCC[C@H](N(C)C(=O)n4cncn4)C3)c(N)c2C(N)=O)cc1` [Compound 232, N-((1S,3S)-3-(5-amino-4-carbamoyl-3-(4-((5-fluoro-2-methoxybenzamido)methyl)phenyl)-1H-pyrazol-1-yl)cycloheptyl)-N-methyl-1H-1,2,4-triazole-1-carboxamide]: the IC50 on BTK C481S protein and at BTK wildtype protein was at most 1000 nM in each case.

In the case of `CN(C(=O)n1cncn1)C1CCC2CNc3c(C(N)=O)c(-c4ccc(Oc5ccccc5)cc4)nn3C2C1` (centres unmarked) [Compound 234, 8-(N-methyl-1H-1,2,4-triazole-1-carboxamido)-2-(4-phenoxyphenyl)-4,5,5a,6,7,8,9,9a-octahydro-pyrazolo[1,5-a]quinazoline-3-carboxamide], the IC50 on BTK C481S protein and on BTK wildtype protein was above 1000 nM in each case.

`CN(C(=O)n1cncn1)C1CCCC1C1CCNc2c(C(N)=O)c(-c3ccc(Oc4ccccc4)cc3)nn21` (centres unmarked) [Compound 235, 7-(2-(N-methyl-1H-1,2,4-triazole-1-carboxamido)cyclopentyl)-2-(4-phenoxyphenyl)-4,5,6,7-tetrahydropyrazolo[1,5-a] pyrimidine-3-carboxamide]: the half-maximal inhibitory concentration (IC50) at BTK C481S protein and at BTK wildtype protein was above 1000 nM each time.

For the compound `COc1ccc(F)cc1C(=O)NCc1ccc(-c2nn(C(Cc3ccccc3)CN(C)C(=O)n3cncn3)c3ncnc(N)c23)cc1` (centres unmarked) [Compound 237, N-(2-(4-amino-3-(4-((5-fluoro-2-methoxybenzamido)methyl)phenyl)-1H-pyrazolo[3,4-d]pyrimidin-1-yl)-3-phenylpropyl)-N-methyl-1H-1,2,4-triazole-1-carboxamide], the 50% inhibitory concentration (IC50) at BTK C481S protein and on BTK wildtype protein was above 1000 nM in each case.

For `CNc1c(C(N)=O)c(-c2ccc(Oc3ccccc3)cc2)nn1C[C@@H]1CCCCN1C(=O)n1cncn1` [Compound 238, (S)-1-((1-(1H-1,2,4-triazole-1-carbonyl)piperidin-2-yl)methyl)-5-(methylamino)-3-(4-phenoxyphenyl)-1H-pyrazole-4-carboxamide], the IC50 was above 1000 nM on BTK C481S protein and at most 1000 nM on BTK wildtype protein.

Take `CN(C(=O)n1cnc(Cl)n1)C1CCCC(n2nc(-c3ccc(Oc4ccccc4)cc3)c3c(N)ncnc32)C1` (centres unmarked) [Compound 239, N-(3-(4-amino-3-(4-phenoxyphenyl)-1H-pyrazolo[3,4-d]pyrimidin-1-yl)cyclohexyl)-3-chloro-N-methyl-1H-1,2,4-triazole-1-carboxamide]: the IC50 on BTK C481S protein and on BTK wildtype protein was at most 1000 nM each time.

`NC(=O)c1c(-c2ccc(Oc3ccccc3)cc2)nn2c1NCCC2CN(C(=O)n1cncn1)C1CC1` (centres unmarked) [Compound 240, 7-((N-cyclopropyl-1H-1,2,4-triazole-1-carboxamido)methyl)-2-(4-phenoxyphenyl)-4,5,6,7-tetrahydro-pyrazolo[1,5-a]pyrimidine-3-carboxamide]: the IC50 at BTK C481S protein and at BTK wildtype protein was above 1000 nM in each case.

`COc1ccc(F)cc1C(=O)NCc1ccc(-c2nn(C[C@@H]3C[C@H](O)CN3C(=O)n3cncn3)c3ncnc(N)c23)cc1` [Compound 241, N-(4-(4-amino-1-(((2S,4S)-4-hydroxy-1-(1H-1,2,4-triazole-1-carbonyl)pyrrolidin-2-yl)methyl)-1H-pyrazolo[3,4-d]pyrimidin-3-yl)benzyl)-5-fluoro-2-methoxybenzamide]: the 50% inhibitory concentration (IC50) at BTK C481S protein and on BTK wildtype protein was at most 1000 nM throughout.

Turning to `CC(C)[C@H](C1CCNc2c(C(N)=O)c(-c3ccc(Oc4ccccc4)cc3)nn21)N(C)C(=O)n1cncn1` (stereo partly drawn) [Compound 242, 7-((R)-2-methyl-1-(N-methyl-1H-1,2,4-triazole-1-carboxamido)propyl)-2-(4-phenoxyphenyl)-4,5,6,7-tetrahydropyrazolo[1,5-a] pyrimidine-3-carboxamide], the 50% inhibitory concentration (IC50) at BTK C481S protein and at BTK wildtype protein was above 1000 nM in each case.

Regarding `COc1ccc(F)cc1C(=O)NCc1ccc(-c2nn(C(CN(C)C(=O)n3cncn3)c3ccccc3)c3ncnc(N)c23)cc1` (centres unmarked) [Compound 243, N-(2-(4-amino-3-(4-((5-fluoro-2-methoxybenzamido)methyl)phenyl)-1H-pyrazolo[3,4-d]pyrimidin-1-yl)-2-phenylethyl)-N-methl-1H-1,2,4-triazole-1-carboxamide], the 50% inhibitory concentration (IC50) at BTK C481S protein and at BTK wildtype protein was above 1000 nM each time.

For the compound `CN(CCC1CCNc2c(C(N)=O)c(-c3ccc(Oc4ccccc4)cc3)nn21)C(=O)n1cncn1` (centres unmarked) [Compound 244, 7-(2-(N-methyl-1H-1,2,4-triazole-1-carboxamido)ethyl)-2-(4-phenoxyphenyl)-4,5,6,7-tetrahydropyrazolo[1,5-a] pyrimidine-3-carboxamide], the 50% inhibitory concentration (IC50) at BTK C481S protein and at BTK wildtype protein was at most 1000 nM each time.

For `COc1ccc(F)cc1C(=O)NCc1ccc(-c2nn(CC3CCN(C(=O)n4cncn4)C3)c3ncnc(N)c23)cc1` (centres unmarked) [Compound 245, N-(4-(1-((1-(1H-1,2,4-triazole-1-carbonyl)pyrrolidin-3-yl)methyl)-4-amino-1H-pyrazolo[3,4-d]pyrimidin-3-yl)benzyl)-5-fluoro-2-methoxybenzamide], the half-maximal inhibitory concentration (IC50) on BTK C481S protein and on BTK wildtype protein was at most 1000 nM in each case.

Take `COc1ccc(F)cc1C(=O)NCc1ccc(-c2nn(CC3CCC(O)CN3C(=O)n3cncn3)c3ncnc(N)c23)cc1` (centres unmarked) [Compound 246, N-(4-(4-amino-1-((5-hydroxy-1-(1H-1,2,4-triazole-1-carbonyl)piperidin-2-yl)methyl)-1H-pyrazolo[3,4-d]pyrimidin-3-yl)benzyl)-5-fluoro-2-methoxybenzamide]: the IC50 at BTK C481S protein and at BTK wildtype protein was at most 1000 nM in each case.

For `CN(C(=O)n1cncn1)[C@@H]1CCC[C@@H](n2nc(-c3ccc(Oc4ccccc4)cc3)c(C(N)=O)c2N)C1` [Compound 247, N-((1R,3R)-3-(5-amino-4-carbamoyl-3-(4-phenoxyphenyl)-1H-pyrazol-1-yl)cyclohexyl)-N-methyl-1H-1,2,4-triazole-1-carboxamide], the half-maximal inhibitory concentration (IC50) on BTK C481S protein and at BTK wildtype protein was at most 1000 nM each time.

In the case of `COc1ccc(F)cc1C(=O)NCc1ccc(-c2nn(C[C@@H]3CCCN3C(=O)n3cncn3)c3ncnc(N)c23)cc1` [Compound 251, (S)-N-(4-(1-((1-(1H-1,2,4-triazole-1-carbonyl)pyrrolidin-2-yl)methyl)-4-amino-1H-pyrazolo[3,4-d]pyrimidin-3-yl)benzyl)-5-fluoro-2-methoxybenzamide], the IC50 on BTK C481S protein and at BTK wildtype protein was at most 1000 nM each time.

Take `CN(C(=O)n1cncn1)[C@H]1CCCC[C@H](n2nc(-c3ccc(Oc4ccccc4)cc3)c(C(N)=O)c2N)C1` [Compound 252, N-((1S,3S)-3-(5-amino-4-carbamoyl-3-(4-phenoxyphenyl)-1H-pyrazol-1-yl)cycloheptyl)-N-methyl-1H-1,2,4-triazole-1-carboxamide]: the 50% inhibitory concentration (IC50) at BTK C481S protein and on BTK wildtype protein was at most 1000 nM throughout.
